Assay results from ChEMBL document CHEMBL1201862, “PubChem BioAssay data set” (2004).
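Dose response: 5 concentrations. Exposure: 48 h. Format: 96-well plates. Endpoint: linear interpolation; highest concentration if not reached. GI50 is the concentration that inhibits growth by half.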 The source made the active and inactive calls. Rule as the data show it: active = GI50 up to about 1.1 µM and inactive = higher.

Assays:
Assay in all cases: NCI anticancer screen, dose series, 48 h
[1] = tested on: IGROV-1
[2] = tested on: RPMI-8226
[3] = tested on: SF-539
[4] = tested on: Hs-578T
[5] = tested on: EKVX
[6] = tested on: UO-31
[7] = tested on: OVCAR-5
[8] = tested on: PC-3
[9] = tested on: HCC 2998
[10] = tested on: BT-549
[11] = tested on: K562
[12] = tested on: T47D
[13] = tested on: KM12
[14] = tested on: NCI-H460
[15] = tested on: SW-620
[16] = tested on: TK-10
[17] = tested on: SNB-19

Structure (SMILES)	GI50 [1]	GI50 [2]	GI50 [3]	GI50 [4]	GI50 [5]	GI50 [6]	GI50 [7]	GI50 [8]	GI50 [9]	GI50 [10]	GI50 [11]	GI50 [12]	GI50 [13]	GI50 [14]	GI50 [15]	GI50 [16]	GI50 [17]
CN(C)CCCCN1c2ccccc2Sc2ccc(N=[N+]=[N-])cc21	3.08 µM (inactive)	2.29 µM (inactive)	5.05 µM (inactive)	5.22 µM (inactive)	13.2 µM (inactive)	6.34 µM (inactive)	3.3 µM (inactive)	3.15 µM (inactive)	1.66 µM (inactive)	11.8 µM (inactive)	2.05 µM (inactive)	4.32 µM (inactive)	3.15 µM (inactive)	4.09 µM (inactive)	4.82 µM (inactive)	12.1 µM (inactive)	8.85 µM (inactive)
O=C1NC(=O)/C(=C/c2ccc(S(=O)(=O)N/N=C/c3ccccc3)cc2)N1	> 100 µM (inactive)	> 100 µM (inactive)	–	> 100 µM (inactive)	> 100 µM (inactive)	> 100 µM (inactive)	> 100 µM (inactive)	> 100 µM (inactive)	> 100 µM (inactive)	> 100 µM (inactive)	> 100 µM (inactive)	> 100 µM (inactive)	> 100 µM (inactive)	–	> 100 µM (inactive)	> 100 µM (inactive)	> 100 µM (inactive)
O=C(NCCNCCCNC(=O)c1cc(-c2ccccc2)nc2ccccc12)c1cccc(OCc2ccccc2)c1OCc1ccccc1	1.85 µM (inactive)	2.48 µM (inactive)	1.77 µM (inactive)	2.58 µM (inactive)	1.69 µM (inactive)	1.66 µM (inactive)	1.91 µM (inactive)	1.67 µM (inactive)	1.26 µM (inactive)	1.72 µM (inactive)	1.74 µM (inactive)	2.18 µM (inactive)	1.83 µM (inactive)	2.13 µM (inactive)	1.77 µM (inactive)	1.77 µM (inactive)	1.78 µM (inactive)
Cc1cc(-n2c(/C=C/c3ccc(Cl)cc3)nc3cc(Cl)ccc3c2=O)on1	29.6 µM (inactive)	–	25.6 µM (inactive)	8.32 µM (inactive)	22.4 µM (inactive)	3.61 µM (inactive)	> 50 µM (inactive)	> 50 µM (inactive)	> 50 µM (inactive)	> 50 µM (inactive)	> 50 µM (inactive)	> 50 µM (inactive)	> 50 µM (inactive)	5.12 µM (inactive)	48 µM (inactive)	12.2 µM (inactive)	9.86 µM (inactive)
Cn1c(=O)c2c(nc(N/N=C3/SCC(=O)N3Cc3ccccc3)n2C)n(C)c1=O	34.3 µM (inactive)	17.5 µM (inactive)	25.6 µM (inactive)	60.8 µM (inactive)	94.2 µM (inactive)	> 100 µM (inactive)	> 100 µM (inactive)	39.2 µM (inactive)	> 100 µM (inactive)	74 µM (inactive)	< 0.01 µM (active)	61.4 µM (inactive)	94.2 µM (inactive)	38 µM (inactive)	–	> 100 µM (inactive)	> 100 µM (inactive)
Fc1ccccc1C1SCc2nc3cc4ccccc4cc3n21 (stereo not drawn)	62.5 µM (inactive)	> 100 µM (inactive)	–	26.5 µM (inactive)	67.6 µM (inactive)	> 100 µM (inactive)	> 100 µM (inactive)	78.3 µM (inactive)	72.6 µM (inactive)	> 100 µM (inactive)	> 100 µM (inactive)	14 µM (inactive)	> 100 µM (inactive)	26.5 µM (inactive)	85.7 µM (inactive)	63.8 µM (inactive)	32.5 µM (inactive)
CC(=O)O[C@H]1[C@H](OC(=O)CC(C)(O)CC(=O)O)C[C@]2(C)C3=C(CCC2C1(C)C)[C@]1(C)CC[C@H]([C@H]2CC[C@H](C(C)(C)O)OC2O)[C@@]1(C)[C@@H](O)C3 (stereo partly drawn)	17.1 µM (inactive)	20.9 µM (inactive)	–	16 µM (inactive)	17.4 µM (inactive)	13.1 µM (inactive)	17.3 µM (inactive)	18.3 µM (inactive)	15.8 µM (inactive)	15.1 µM (inactive)	26.2 µM (inactive)	20.9 µM (inactive)	19.7 µM (inactive)	15.3 µM (inactive)	14.1 µM (inactive)	30.9 µM (inactive)	18.8 µM (inactive)
COC(=O)Cc1cc(O)c(C/C=C(\C)CC/C=C(\C)C(O)C(=O)C=C(C)C)cc1O (stereo not drawn)	23.3 µM (inactive)	26.7 µM (inactive)	20.3 µM (inactive)	41 µM (inactive)	23.6 µM (inactive)	21.6 µM (inactive)	33.7 µM (inactive)	21.9 µM (inactive)	–	25.6 µM (inactive)	15.6 µM (inactive)	16.5 µM (inactive)	20.7 µM (inactive)	20.6 µM (inactive)	31.3 µM (inactive)	–	32 µM (inactive)
CN1COCc2c1ccc1cc3ccc4c(c3nc21)COCN4S(C)(=O)=O	> 100 µM (inactive)	–	–	95.9 µM (inactive)	78 µM (inactive)	> 100 µM (inactive)	> 100 µM (inactive)	> 100 µM (inactive)	> 100 µM (inactive)	> 100 µM (inactive)	> 100 µM (inactive)	> 100 µM (inactive)	> 100 µM (inactive)	> 100 µM (inactive)	> 100 µM (inactive)	> 100 µM (inactive)	> 100 µM (inactive)
